Results reported in patent publication US20250082598A1, “Melafenoxate, 2-(1-adamantylamino)ethyl 2-(4-chlorophenoxy)acetate and derivatives thereof for treating circadian rhythm sleep disorders with neurodegenerative diseases such as Alzheimer's disease” (NLS Pharmaceutics AG, priority 2021, published 2025).

Test system: C57BL/6J mice
Assay: Scopolamine-induced amnesia in the novel object recognition (NOR) test
Assay type: in vivo
Conditions: scopolamine 1.2 mg/kg i.p. alone
Protocol: The scopolamine-induced amnesia in the novel object recognition (NOR) test in mice is a recognized in vivo model of Alzheimer Disease (AD).
The aim of this study is to examine whether Melafenoxate (NLS-8) improves amnesia induced by scopolamine in the NOR test.
Experiments were carried out on C57BL/6J mice.
In a first step of the experiment, NLS-8 was tested at 25, 50 and 100 mg/kg.
Animals were divided into 6 groups (N=4-10/group).
At T=0 min, they received the following treatments by intraperitoneal (i.p.) route: • Control group: vehicle. • Scopolamine group: scopolamine (1.2 mg/kg). • NLS-8 25 group: NLS-8 (25 mg/kg)+scopolamine (1.2 mg/kg). • NLS-8 50 group: NLS-8 (50 mg/kg)+scopolamine (1.2 mg/kg). • NLS-8 100 group: NLS-8 (100 mg/kg)+scopolamine (1.2 mg/kg). • NLS-8 150 group: NLS-8 (150 mg/kg)+scopolamine (1.2 mg/kg).
At T=30 min following treatment, animals were subjected to a sample trial. They were placed for a 12-min session in a circular experimental box in which two identical objects were presented (50% of animals: two brown cylindrical vials; 50% of animals: two black rectangular columns). At t=120 min following treatments, mice were subjected to a choice trial. They were placed again for a 12-min session in the same experimental box in which two different objects (a vial and a column) were presented: one of the objects (termed as familiar object) presented in the sample trial and a novel object. Exploration of the objects was recorded by an experimenter blind to treatment and unaware of which object was the novel one and which object was the familiar one.
DI(discrimination index)=100 ×(exploration time of the novel object−exploration time of the familiar object)/(exploration time of the novel object+exploration time of the familiar object). • Index of exploration: N+F=exploration time of the novel object+exploration time of the familiar object.
• Within group comparisons: DI vs. 0 (paired Student's t test). • Between group comparisons vs. the Control group and vs. the Scopo group: unpaired Student's t test.

Q: Which “discrimination index vs. 0 (within group)” value does the source give for `CN1[C@@H]2C[C@@H](OC(=O)[C@H](CO)c3ccccc3)C[C@H]1[C@@H]1O[C@@H]12` [Scopo, scopolamine, reference compound] here?
A: Its value is “Not significantly different from 0”.

Q: What about the “discrimination index vs. Control group” value of the same compound?
A: Its value is “Significantly lower”.
